20 compounds from ChEMBL document CHEMBL4325923, “Analogues of the Lignan Pinoresinol as Novel Lead Compounds for P-glycoprotein (P-gp) Inhibitors” (ACS Med Chem Lett, 2018) can be followed below.

Series [1] concerns K562. The series is described as follows: Inhibition of doxorubicin efflux in human K562 cells at 25 uM preincubated for 1 hr followed by doxorubicin addition measured after 1 hr by flow cytometry. The class given is functional, cell-based. (In flow cytometry, cells or beads pass a laser one at a time.)
For series [2], the target named is T1, ATP-dependent translocase ABCB1 (Homo sapiens, UniProt P08183). Nature of the series: Inhibition of P-gp-mediated doxorubicin efflux in human Lucena 1 cells assessed as ratio of doxorubicin fluorescence intensity in presence of compound to doxorubicin fluorescence intensity in absence of compound at 25 uM preincubated for 1 hr followed by doxorubicin addition measured after 1 hr by flow cytometry. In kind it is cell-based.
T1 sequence (P08183 whole entry): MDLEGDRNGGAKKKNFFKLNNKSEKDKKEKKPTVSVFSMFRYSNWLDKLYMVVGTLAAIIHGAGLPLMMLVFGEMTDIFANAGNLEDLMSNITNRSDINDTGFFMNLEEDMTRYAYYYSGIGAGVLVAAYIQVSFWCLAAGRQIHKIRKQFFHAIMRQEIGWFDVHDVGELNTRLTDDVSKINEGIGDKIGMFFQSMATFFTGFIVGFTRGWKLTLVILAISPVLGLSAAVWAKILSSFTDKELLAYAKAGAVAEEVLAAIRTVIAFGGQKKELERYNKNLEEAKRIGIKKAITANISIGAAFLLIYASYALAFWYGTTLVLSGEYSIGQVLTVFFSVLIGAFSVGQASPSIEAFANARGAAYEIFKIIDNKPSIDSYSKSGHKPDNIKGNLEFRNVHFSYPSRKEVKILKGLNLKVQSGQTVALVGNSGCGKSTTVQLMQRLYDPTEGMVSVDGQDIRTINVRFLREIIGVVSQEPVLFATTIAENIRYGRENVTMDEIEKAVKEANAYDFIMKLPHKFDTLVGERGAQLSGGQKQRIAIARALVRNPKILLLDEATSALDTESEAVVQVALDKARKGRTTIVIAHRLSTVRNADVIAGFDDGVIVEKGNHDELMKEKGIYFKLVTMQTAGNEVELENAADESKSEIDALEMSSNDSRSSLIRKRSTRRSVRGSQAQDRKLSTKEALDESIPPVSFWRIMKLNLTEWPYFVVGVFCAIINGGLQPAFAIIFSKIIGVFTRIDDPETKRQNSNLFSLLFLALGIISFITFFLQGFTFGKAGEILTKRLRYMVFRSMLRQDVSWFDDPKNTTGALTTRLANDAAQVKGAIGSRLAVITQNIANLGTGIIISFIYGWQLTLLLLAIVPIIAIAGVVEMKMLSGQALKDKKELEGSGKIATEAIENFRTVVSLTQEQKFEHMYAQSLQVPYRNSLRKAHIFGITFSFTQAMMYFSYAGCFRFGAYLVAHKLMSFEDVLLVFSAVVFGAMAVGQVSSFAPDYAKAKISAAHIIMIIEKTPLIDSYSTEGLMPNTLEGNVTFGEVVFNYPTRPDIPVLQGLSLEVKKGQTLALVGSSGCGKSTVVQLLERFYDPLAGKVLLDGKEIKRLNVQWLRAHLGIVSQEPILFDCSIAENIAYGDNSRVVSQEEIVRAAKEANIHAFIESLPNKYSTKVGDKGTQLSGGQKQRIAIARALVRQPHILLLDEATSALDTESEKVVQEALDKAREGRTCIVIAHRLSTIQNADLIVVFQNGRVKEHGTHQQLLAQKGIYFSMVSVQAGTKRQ

For series [3], the target named is T1, ATP-dependent translocase ABCB1. Nature of the series: Inhibition of P-gp-mediated doxorubicin efflux in human Lucena 1 cells assessed as ratio of doxorubicin fluorescence intensity in presence of compound to doxorubicin fluorescence intensity in absence of compound at 6.25 uM preincubated for 1 hr followed by doxorubicin addition measured after 1 hr by flow cytometry. In kind it is cell-based.

The target is the same in series [4]. The series is described as follows: Inhibition of P-gp-mediated doxorubicin efflux in human Lucena 1 cells assessed as ratio of doxorubicin fluorescence intensity in presence of compound to doxorubicin fluorescence intensity in absence of compound at 1.56 uM preincubated for 1 hr followed by doxorubicin addition measured after 1 hr by flow cytometry. In kind it is cell-based.

Series [5] shares this target. Nature of the series: Inhibition of P-gp-mediated doxorubicin efflux in human Lucena 1 cells preincubated for 1 hr followed by doxorubicin addition measured after 1 hr by flow cytometry. In kind it is cell-based.
Series [6] shares this target. Nature of the series: Inhibition of P-gp-mediated Rho-123 efflux in human Lucena 1 cells at […] preincubated for 1 hr followed by Rho-123 addition measured after 1 hr by flow cytometry. In kind it is cell-based.
For series [7], the target named is P-gp (ABCB1) (Homo sapiens, UniProt P08183). The series is described as follows: Stimulation of P-gp (unknown origin) ATPase activity at 10 uM relative to control. The following applies: read-out: Activity.
P-gp (ABCB1), sequence (P08183 whole entry): as above
Series [8] has as its target T1, ATP-dependent translocase ABCB1. Nature of the series: Inhibition of P-gp-mediated doxorubicin efflux in human Lucena 1 cells assessed as ratio of doxorubicin fluorescence intensity in presence of compound to doxorubicin fluorescence intensity in absence of compound at 0.78 uM preincubated for 1 hr followed by doxorubicin addition measured after 1 hr by flow cytometry. The class given is cell-based.

The test system of series [9] is PBMC. The series is described as follows: Cytotoxicity against human PBMC at 6.25 uM after 48 hrs by MTT assay. The class given is cell-based. Background: Tetrazolium dyes change colour on reduction, which living cells bring about.
In series [10] the target is T1, ATP-dependent translocase ABCB1. Nature of the series: Inhibition of P-gp-mediated Rho-123 efflux in human Lucena 1 cells at 50 uM preincubated for 1 hr followed by Rho-123 addition measured after 1 hr by flow cytometry. The class given is cell-based.
Series [11] concerns K562. The class given is functional, cell-based. The following applies: Homo sapiens, 3.12 uM.
Series [12] has as its system PBMC. Nature of the series: Cytotoxicity against human PBMC at 25 uM after 48 hrs by MTT assay relative to control. In kind it is cell-based.
For series [13], the system named is K562. The series is described as follows: Potentiation of doxorubicin-induced cytotoxicity in human K562 cells assessed as decrease in doxorubicin IC50 at 1.56 uM after 48 hrs by MTT assay. In kind it is functional, cell-based.
Series [14] addresses T1, ATP-dependent translocase ABCB1. The series is described as follows: Inhibition of P-gp-mediated doxorubicin efflux in human Lucena 1 cells assessed as ratio of doxorubicin fluorescence intensity in presence of compound to doxorubicin fluorescence intensity in absence of compound at 0.39 uM preincubated for 1 hr followed by doxorubicin addition measured after 1 hr by flow cytometry. In kind it is cell-based.

Calls of active or inactive are those of the source. The rule behind the calls is not given here.

In the case of `CC/C(=C(/CC)c1ccc(OCCCOC(C)=O)cc1)c1ccc(OCCCOC(C)=O)cc1`, the inhibition result in series [1] was “inactive”. Besides, the Ratio is listed as 1.21 in series [2], 1.06 in series [3] and 1.02 in [4]. Moreover, the “inhibition (INH)” value in [5] is on record as “Dose-dependent effect”.
With `COc1cc([C@@H]2CC(O)=Nc3c2cnn3Cc2cccs2)ccc1O`, in [2], the Ratio worked out at 0.96.
On the same count and under the same terms, the result for `Cc1c(-c2ccc(O)c(O)c2)[nH]c2ccc(OCCO)cc12` reads 1.01.
As to `CC/C(=C(/CC)c1ccc(OCCCS(=O)(=O)[O-])cc1)c1ccc(OCCCS(=O)(=O)[O-])cc1.[Na+].[Na+]`, the Ratio in series [2] is 1.03.
Still for that read-out and setting: for `Cc1c(-c2ccc(O)c(O)c2)n(C)c2ccc(O)cc12` the value was 0.75.
As to `CC/C(=C(\c1ccccc1)c1ccc(OCCN(C)C)cc1)c1ccccc1` [TAMOXIFEN], the Ratio in series [2] was found to be 1.13. Besides, the INH entry in series [6] is reported as “Active”.
Regarding `Cc1c(-c2ccc(O)cc2)[nH]c2ccc(O)cc12`, the Ratio in [2] was 0.8.
As for `CC/C(=C(/CC)c1ccc(OCCOC(C)=O)cc1)c1ccc(OCCOC(C)=O)cc1`, the inhibition result in series [1] is “inactive”. Moreover, the Ratio in series [2] was determined as 1.21; in series [3] it was 1.12; in series [4], 1.03. The “inhibition (INH)” value in [5] is reported as “Dose-dependent effect”.
For `CC/C(=C(/CC)c1ccc(OC)cc1)c1ccc(OC)cc1`, in [1], the inhibition result is “inactive”. The Ratio in [2] amounted to 1.19; in series [3], 1.09. The “inhibition (INH)” value in series [5] is on record as “Dose-dependent effect”.
Turning to `CC/C(=C(/CC)c1ccc(OCCOS(=O)(=O)[O-])cc1)c1ccc(OCCOS(=O)(=O)[O-])cc1.[Na+].[Na+]`, the Ratio in series [2] turned out to be 1.04.
For the compound `CC/C(=C(/CC)c1ccc(O)cc1)c1ccc(O)cc1` [DIETHYLSTILBESTROL], the inhibition result in series [1] was “inactive”. Further, the Ratio in series [2] is 1.06; in series [3], 1.04. In addition, in series [7], the activity at 10 µM is 45%.
As to `CC/C(=C(/CC)c1ccc(OCCCCOC(C)=O)cc1)c1ccc(OCCCCOC(C)=O)cc1`, in series [1], the inhibition result was “inactive”. The Ratio came to 1.18 in series [2], 1.09 in [3] and 1.01 in series [4]. The “inhibition (INH)” value in series [5] was “Dose-dependent effect”.
Turning to `COc1ccc(-n2nc(C)c3c2NC(=O)C[C@@H]3c2ccc(O)c(OC)c2)cc1`, the Ratio in [2] was determined as 1.11.
Consider `CC/C(=C(/CC)c1ccc(OCCCO)cc1)c1ccc(OCCCO)cc1`, for which the inhibition result in series [1] was “inactive”. In addition, the Ratio in series [2] is 1.23; in series [8], 0.98; in series [3], 1.09; in series [4] it was 1.05. The values for the Activity result in series [9] and in series [12] were “Non-Toxic” and 34.67%, respectively. The “inhibition (INH)” value in [10] is recorded as “Active”; in [5] it was “Dose-dependent effect”. In addition, the Activity entry in series [11] was “inactive”.
Take `COc1ccc2[nH]c(-c3ccc(OC)c(OC)c3)c(C)c2c1`: in series [2], the Ratio is 0.9.
In the case of `CC/C(=C(/CC)c1ccc(OCCCCO)cc1)c1ccc(OCCCCO)cc1`, the inhibition result in series [1] is “inactive”. For the same compound, in [13], the Activity result is “inactive”. For the same compound, the Ratio is listed as 1.32 in series [2]; 0.99 in series [8]; 1.08 in series [3]; 1.1 in series [4]; 1 in series [14]. Besides, the Activity entry in series [9] is recorded as “Non-Toxic”; in series [12], 41%. Moreover, the “inhibition (INH)” value in series [5] was “Dose-dependent effect”. Besides, in series [6], the INH entry was “Active”.
In the case of `CC/C(=C(/CC)c1ccc(OCCCCS(=O)(=O)[O-])cc1)c1ccc(OCCCCS(=O)(=O)[O-])cc1.[Na+].[Na+]`, the Ratio in series [2] is given as 0.95.
Same read-out and setting: the result for `Cc1c(-c2ccc(O)c(O)c2)[nH]c2ccc(O)cc12` reads 0.72.
Turning to `CC/C(=C(/CC)c1ccc(OCCO)cc1)c1ccc(OCCO)cc1`, the inhibition entry in series [1] is “inactive”. In addition, the Ratio in [2] was found to be 1.16; in series [3], 1.08. Besides, the “inhibition (INH)” value in [5] was “Dose-dependent effect”.
`CC/C(=C(/CC)c1ccc(S(=O)(=O)[O-])cc1)c1ccc(S(=O)(=O)[O-])cc1.[Na+].[Na+]`: the Ratio in [2] is recorded as 0.99.
